Measured values published in PubChem BioAssay (NCI).
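Here, GI50 denotes the concentration required for 50% inhibition of growth. TGI is the concentration that stops growth completely.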

Assays:
Experiment in all cases: NCI tumour cell line growth inhibition, 384-well format; in the data active means GI50 below about 0.43 µM; inactive means the rest
[1] = system: HCC-2998 colon
[2] = system: K-562 leukemia
[3] = system: HS 578T breast
[4] = system: CCRF-CEM leukemia
[5] = system: NCI-H460 NSCLC
[6] = system: HCT-15 colon
[7] = system: CAKI-1 renal
[8] = system: UACC-257 melanoma
[9] = system: HOP-62 NSCLC
[10] = system: MALME-3M melanoma
[11] = system: SF-295 CNS
[12] = system: LOX IMVI melanoma
[13] = system: 786-0 renal
[14] = system: HT29 colon
[15] = system: SR leukemia
[16] = system: SW-620 colon
[17] = system: NCI-H226 lung
[18] = system: SNB-19 CNS
[19] = system: RXF 393 renal
[20] = system: RPMI-8226 leukemia
[21] = system: SK-OV-3 ovarian
[22] = system: NCI-H522 lung
[23] = system: BT-549 breast
[24] = system: SK-MEL-28 melanoma
[25] = system: NCI-H322M lung
[26] = system: SNB-75 CNS
[27] = system: A498 renal
[28] = system: SF-539 CNS
[29] = system: M14 melanoma
[30] = system: OVCAR-3 ovarian
[31] = system: SF-268 CNS
[32] = system: ACHN renal
[33] = system: UO-31 renal
[34] = system: HOP-92 NSCLC
[35] = system: OVCAR-8 ovarian
[36] = system: KM12 colon
[37] = system: DU-145 prostate
[38] = system: IGROV1 ovarian
[39] = system: OVCAR-4 ovarian
[40] = system: NCI-H23 lung
[41] = system: PC-3 prostate
[42] = system: HL-60(TB) leukemia
[43] = system: UACC-62 melanoma
[44] = system: A549 NSCLC
[45] = system: MDA-MB-231 breast
[46] = system: HCT-116 colon
[47] = system: MDA-MB-468 breast
[48] = system: SN12C renal
[49] = system: MOLT-4 leukemia
[50] = system: SK-MEL-2 melanoma
[51] = system: U251 glioblastoma
[52] = system: MDA-MB-435 melanoma
[53] = system: SK-MEL-5 melanoma
[54] = system: OVCAR-5 ovarian
[55] = system: T-47D breast
[56] = system: TK-10 renal

COc1ccc(-c2c(Nc3ccccn3)nc3c(C4=CCCCC4)c(-c4ccccc4)[nH]n3c2=O)cc1
9.51 µM: TGI [37]
14.5 µM: TGI [3]
2.76 µM: TGI [5]
5.72 µM: TGI [46]
10.9 µM: TGI [22]
1.09 µM: TGI [15]
2.78 µM: TGI [47]
3.32 µM: TGI [30]
2.72 µM: TGI [19]
9.61 µM: TGI [9]
1.85 µM: TGI [42]
1.88 µM: TGI [20]
1.1 µM: TGI [4]
inactive: GI50 [1] 2.41 µM | GI50 [2] 0.928 µM | GI50 [3] 1.06 µM | GI50 [6] 1.36 µM | GI50 [7] 1.38 µM | GI50 [8] 1.61 µM | GI50 [9] 0.717 µM | GI50 [10] 1.29 µM | GI50 [11] 1.12 µM | GI50 [12] 0.989 µM | GI50 [13] 2.41 µM | GI50 [14] 4.21 µM | GI50 [16] 3 µM | GI50 [17] 2.01 µM | GI50 [18] 2 µM | GI50 [21] 0.604 µM | GI50 [22] 1.04 µM | GI50 [23] 0.461 µM | GI50 [24] 3.09 µM | GI50 [25] 1.06 µM | GI50 [26] 8.11 µM | GI50 [28] 1.46 µM | GI50 [29] 0.841 µM | GI50 [30] 1 µM | GI50 [31] 0.589 µM | GI50 [32] 1.79 µM | GI50 [33] 3.36 µM | GI50 [34] 1.94 µM | GI50 [35] 2.11 µM | GI50 [36] 2.16 µM | GI50 [37] 0.727 µM | GI50 [38] 2.45 µM | GI50 [39] 1.59 µM | GI50 [40] 1.33 µM | GI50 [41] 1.58 µM | GI50 [42] 0.58 µM | GI50 [43] 0.89 µM | GI50 [44] 1.44 µM | GI50 [45] 1.24 µM | GI50 [46] 1.28 µM | GI50 [47] 0.967 µM | GI50 [48] 1.99 µM | GI50 [50] 2.18 µM | GI50 [51] 1.27 µM | GI50 [52] 3.08 µM | GI50 [53] 0.835 µM | GI50 [54] 2.32 µM | GI50 [55] 1.06 µM | GI50 [56] 1.64 µM
> 100 µM: TGI [1] | TGI [2] | TGI [6] | TGI [7] | TGI [8] | TGI [10] | TGI [11] | TGI [13] | TGI [14] | TGI [16] | TGI [17] | TGI [18] | TGI [21] | TGI [23] | TGI [24] | TGI [25] | TGI [26] | TGI [27] | TGI [28] | TGI [29] | TGI [31] | TGI [32] | TGI [33] | TGI [35] | TGI [36] | TGI [38] | TGI [39] | TGI [40] | TGI [41] | TGI [43] | TGI [44] | TGI [48] | TGI [51] | TGI [52] | TGI [54] | TGI [55] | TGI [56]
0.431 µM: TGI [49]
2.64 µM: TGI [53]
74.9 µM: TGI [34]
9.1 µM: TGI [50]
active: GI50 [4] 0.304 µM | GI50 [5] 0.353 µM | GI50 [15] 0.222 µM | GI50 [19] 0.108 µM | GI50 [20] 0.288 µM | GI50 [27] 0.309 µM | GI50 [49] 0.189 µM
8.41 µM: TGI [12]
6.85 µM: TGI [45]
